Data: patent publication US10870647B2, “Imidazopyridine derivative, method for preparing same, and pharmaceutical composition containing same as active ingredient for preventing or treating cancer” (DAEGU-GYEONGBUK MEDICAL INNOVATION FOUNDATION, priority 2016, dated 2020)
Where two headings read alike, the source gives them in different places.

Key:
Type in all cases: cell-based
RET (LC2/ad-CDC6) = experiment: Cancer cell proliferation inhibition, MTS assay, 72 hours; settings: 72 h
Description: (§1) MTS assay was performed to evaluate the cancer cell proliferation inhibition (cancer cell apoptosis) effect of the compounds of examples of the present invention. Particularly, the assay was performed using the cancer cell lines GIST-T1, GIST-T1/816, GIST-430, GIST-430/654, GIST-R1, GIST-R3, M-NFS-60, RetParental (Ba/F3), Retwt (Ba/F3), RetV804M (Ba/F3), RET (LC2/ad-CDC6), FYN (MCP-1), FYN (FN), MDA-MB-231, Huh7, K562, T315I(Ba/F3), SK-MEL-28 and A375. Cell culture was performed using a medium suitable for each cell line.
(§2) Other cell lines were seeded in a 96-well plate containing the corresponding medium appropriate for each cell line at the density of 3,000 cells/well, followed by culture in a 5% CO2 and 37° C. incubator for 24 hours. The compounds of examples of the present invention were added to each well at the concentration of from the highest volume of 50 μM to every step of serial dilution. The solvent control, dimethylsulfoxide (DMSO), was treated at the same concentration of 0.05% (v/v) as the volume used for the treatment of the compounds above. Each cell line was cultured for 72 hours. To investigate the cell viability, the MTS and PMS (phenazine methosulfate) mixture provided in CellTiter 96® AQuous Non-Radioactive Cell Proliferation Assay Kit (Promega) was added to each cell culture medium, followed by additional culture at 37° C. for 2 hours. Then, OD450 was measured. Based on OD of the solvent control cells not treated with any compounds of the present invention, the cell proliferation inhibition rate was calculated according to the treatment concentration of each compound. At this time, the concentration of each compound that was able to inhibit cancer cell proliferation up to 50% was determined as IC50 (uM). IC50 of each compound was determined with three data sets and calculated by using Prism softwater (version 6.01, GraphPad).

MDA-MB-231 = experiment: Real time cell proliferation, IncuCyte ZOOM, 72 hours
A375 = experiment: Cancer cell proliferation inhibition, CCK-8, 72 hours
Description: as §1
(§3) In the meantime, MDA-MB-231 and A375 cells were seeded in a 96well plate at the density of 2×10^3/100 μl/well, which stood for a day for attachment. The culture fluid was eliminated. After removing the culture medium, the medium was replaced with the culture medium containing the compounds of the present invention at 3-times serially diluted 9 concentrations (0.0015-10 μM) and the DMSO control, followed by incubation in a 37° C. CO2 incubator for 72 hours. On the other hand, K-562 and Ba/F3-T315I cells were seeded in a 96-well plate at the density of 1×10^4/90 μl/well. The plate containing K-562 cells was added with the culture medium containing the compounds of the present invention at 3-times serially diluted 9 concentrations (0.015-100 μM) and the DMSO control (10 μl/well). The plate containing Ba/F3-T315I cells was added with the culture medium containing the compounds of the present invention at 5-times serially diluted 9 concentrations (0.000256-100 μM) and the DMSO control (10 μl/well). The final concentration was made 0-10 μM and then the cells were cultured in a 37° C. CO2 incubator for 72 hours.
(§4) A375, K-562 and Ba/F3-T315I cells were added with CCK-8 solution at the concentration of 10 μl/well, followed by orbital shaking for 30 seconds. Then, the cells were cultured in a 37° C. CO2 incubator for 2 hours. OD450 was measured by using a microplate reader. The OD value of the well treated with the culture medium and CCK-8 solution alone was subtracted from the OD value measured above, followed by calculation of IC50 using GraphPad Prism 6 software.

K562 = experiment: as above
Description: as §1, §3, §4

T315I (Ba/F3) = biological target: T1, T315I (Ba/F3) (Homo sapiens, UniProt P00519, T315I, cells depend on it); experiment: as above; settings: read-out: T315I (Ba/F3) IC50
T1 construct: fused on or other part: P11274 (Breakpoint cluster region protein)
Description: as §1, §3, §4

Huh7 = experiment: Cancer cell proliferation inhibition, MTS assay, 72 hours; settings: Homo sapiens, Huh-7
Description: as §1, §2

Row | IC50 (RET (LC2/ad-CDC6)) | IC50 (MDA-MB-231; Homo sapiens, MDA-MB-231, 72 h) | IC50 (A375; Homo sapiens, A-375, 72 h) | IC50 (K562; Homo sapiens, K562, 72 h) | GI50 (T315I (Ba/F3)) | IC50 (Huh7) | IC50 (MDA-MB-231) | IC50 (A375) | IC50 (K562) | Structure (SMILES)
1 | > 10 nM | > 10000 nM | > 10000 nM | < 1 nM | 1140 nM |  |  |  |  | CCn1cc(Nc2cccn3c(C#Cc4cc(C(=O)Nc5ccc(N6CCOCC6)c(F)c5)ccc4C)cnc23)cn1 [Example 56, 3-((8-((1-ethyl-1H-pyrazol-4-yl)amino)imidazo[1,2-a]pyridin-3-yl)ethynyl)-N-(3-fluoro-4-morpholinophenyl)-4-methylbenzamide]
2 |  | > 10000 nM | > 10000 nM | 2 nM | 663 nM | 1800 nM |  |  |  | Cc1ccc(C(=O)Nc2ccc3ncsc3c2)cc1C#Cc1cnc2c(Nc3cnn(C)c3)cccn12 [Example 37, N-(benzo[d]thiazol-6-yl)-4-methyl-3-((8-((1-methyl-1H-pyrazol-4-yl)amino)imidazo[1,2-a]pyridin-3-yl)ethynyl)benzamide]
3 |  |  |  |  | 190 nM |  | 1730 nM | 1960 nM | 43 nM | Cc1ccc(C(=O)Nc2ccc(CN3CCN(C)[C@H](C)C3)c(C(F)(F)F)c2)cc1C#Cc1cnc2c(Nc3cnn(C(C)C)c3)cccn12 [Example 81, (R)—N-(4-((3,4-dimethylpiperazin-1-yl)methyl)-3-(trifluoromethyl)phenyl)-3-((8-((1-isopropyl-1H-pyrazol-4-yl)amino)imidazo[1,2-a]pyridin-3-yl)ethynyl)-4-methylbenzamide]
4 | > 10 nM | 382 nM | 406 nM | < 1 nM | 86.3 nM |  |  |  |  | Cc1ccc(C(=O)Nc2ccc(CN3CCN(C)[C@@H](C)C3)c(C(F)(F)F)c2)cc1C#Cc1cnc2c(Nc3cnn(C(C)C)c3)cccn12 [Example 48, (S)—N-(4-((3,4-dimethylpiperazin-1-yl)methyl)-3-(trifluoromethyl)phenyl)-3-((8-((1-isopropyl-1H-pyrazol-4-yl)amino)imidazo[1,2-a]pyridin-3-yl)ethynyl)-4-methylbenzamide]
5 | > 10 nM | 816 nM | 720 nM | 2 nM | 145 nM |  |  |  |  | Cc1cc(Nc2cccn3c(C#Cc4cc(C(=O)Nc5ccc(CN6CCC(N(C)C)C6)c(C(F)(F)F)c5)ccc4C)cnc23)no1 (stereo not shown) [Example 45, N-(4-((3-(dimethylamino)pyrrolidin-1-yl)methyl)-3-(trifluoromethyl)phenyl)-4-methyl-3-((8-((5-methylisoxazol-3-yl)amino)imidazo[1,2-a]pyridin-3-yl)ethynyl)benzamide]
6 |  | 4730 nM |  | 6 nM | 25.2 nM | 955 nM |  |  |  | COCCn1cc(Nc2cccn3c(C#Cc4cc(C(=O)Nc5cc(-n6cnc(C)c6)cc(C(F)(F)F)c5)ccc4C)cnc23)cn1 [Example 71]
7 | > 10 nM | 513 nM | 1020 nM | 5 nM | 217 nM |  |  |  |  | Cc1ccc(C(=O)Nc2ccc(CN3CCN(C)[C@@H](C)C3)c(C(F)(F)F)c2)cc1C#Cc1cnc2c(Nc3cnn(CCCN(C)C)c3)cccn12 [Example 49, (S)-3-((8-((1-(3-(dimethylamino)propyl)-1H-pyrazol-4-yl)amino)imidazo[1,2-a]pyridin-3-yl)ethynyl)-N-(4-((3,4-dimethylpiperazin-1-yl)methyl)-3-(trifluoromethyl)phenyl)-4-methylbenzamide]
8 |  | > 10000 nM | > 10000 nM | 763 nM | 5410 nM | 5650 nM |  |  |  | Cc1ccc(NC(=O)C2(C(=O)Nc3ccc(F)cc3)CC2)cc1C#Cc1cnc2c(Nc3cnn(C)c3)cccn12 [Example 79]
9 | > 10 nM | 388 nM | 454 nM | < 1 nM | 30.9 nM |  |  |  |  | CCn1cc(Nc2cccn3c(C#Cc4cc(C(=O)Nc5ccc(CN6CC[C@H](N(C)C)C6)c(C(F)(F)F)c5)ccc4C)cnc23)cn1 [Example 54, (S)—N-(4-((3-(dimethylamino)pyrrolidin-1-yl)methyl)-3-(trifluoromethyl)phenyl)-3-((8-((1-ethyl-1H-pyrazol-4-yl)amino)imidazo[1,2-a]pyridin-3-yl)ethynyl)-4-methylbenzamide]
10 |  | 770 nM | 668 nM | 19 nM | 133 nM | 247 nM |  |  |  | Cc1ccc(C(=O)Nc2ccc(CN3CCCN(C)CC3)c(C(F)(F)F)c2)cc1C#Cc1cnc2c(Nc3cnn(C(C)C)c3)cccn12 [Example 38, 3-((8-((1-isopropyl-1H-pyrazol-4-yl)amino)imidazo[1,2-a]pyridin-3-yl)ethynyl)-4-methyl-N-(4-((4-methyl-1,4-diazepin-1-yl)methyl)-3-(trifluoromethyl)phenyl)benzamide]
11 | > 10 nM | 273 nM | 250 nM | 7 nM | 6.27 nM |  |  |  |  | COCCCn1cc(Nc2cccn3c(C#Cc4cc(C(=O)Nc5ccc(CN6CCN(C)[C@@H](C)C6)c(C(F)(F)F)c5)ccc4C)cnc23)cn1 [Example 46, (S)—N-(4-((3,4-dimethylpiperazin-1-yl)methyl)-3-(trifluoromethyl)phenyl)-3-((8-((1-(3-methoxypropyl)-1H-pyrazol-4-yl)amino)imidazo[1,2-a]pyridin-3-yl)ethynyl)-4-methylbenzamide]
12 | > 10 nM | 219 nM | 221 nM | < 1.5 nM |  | 33 nM |  |  |  | COCCCn1cc(Nc2cccn3c(C#Cc4cc(C(=O)Nc5ccc(CN6CCN(C)CC6)c(C(F)(F)F)c5)ccc4C)cnc23)cn1 [Example 65]
13 | > 10 nM | > 10000 nM | > 10000 nM | 290 nM | 3080 nM |  |  |  |  | Cc1ccc(NC(=O)Nc2cc(C(C)(C)C(F)(F)F)on2)cc1C#Cc1cnc2c(Nc3cnn(C(C)C)c3)cccn12 [Example 85, 1-(3-((8-((1-isopropyl-1H-pyrazol-4-yl)amino)imidazo[1,2-a]pyridin-3-yl)ethynyl)-4-methylphenyl)-3-(5-(1,1,1-trifluoro-2-methylpropan-2-yl)isoxazol-3-yl)urea]
14 |  | 916 nM |  | < 1.5 nM | 421 nM |  |  |  |  | CCN1CCN(Cc2ccc(NC(=O)c3ccc(C)c(C#Cc4cnc5c(Nc6cnn(CCN(C)C)c6)cccn45)c3)cc2C(F)(F)F)CC1 [Example 73]
15 |  | 1460 nM | 1520 nM | 43 nM | 238 nM | 457 nM |  |  |  | Cc1ccc(C(=O)Nc2ccc(CN3CCCN(C)CC3)c(C(F)(F)F)c2)cc1C#Cc1cnc2c(Nc3cnn(CCCN(C)C)c3)cccn12 [Example 39, 3-((8-((1-(3-(dimethylamino)propyl)-1H-pyrazol-4-yl)amino)imidazo[1,2-a]pyridin-3-yl)ethynyl)-4-methyl-N-(4-((4-methyl-1,4-diazepin-1-yl)methyl)-3-(trifluoromethyl)phenyl)benzamide]
16 | > 10 nM | 324 nM | 285 nM | < 1 nM | 2.67 nM |  |  |  |  | CCn1cc(Nc2cccn3c(C#Cc4cc(C(=O)Nc5ccc(CN6CC[C@@H](N(C)C)C6)c(C(F)(F)F)c5)ccc4C)cnc23)cn1 [Example 53, (R)—N-(4-((3-(dimethylamino)pyrrolidin-1-yl)methyl)-3-(trifluoromethyl)phenyl)-3-((8-((1-ethyl-1H-pyrazol-4-yl)amino)imidazo[1,2-a]pyridin-3-yl)ethynyl)-4-methylbenzamide]
